Data on 5 molecules can be found in patent US20100034779A1, “COMPOSITIONS AND METHODS FOR PRODUCING PLURIPOTENT CELLS FROM ADULT TESTIS” (priority 2005, published 2010).

Entries after “also recorded” stand apart in the source; their conditions may differ.

In one test the test system is gap junctions. In words: fluorescence recovery after photobleaching (FRAP) of calcein AM in cardiac clusters. Format: cell-based, mouse. The settings on record: carbenoxolone 50 μmol/L. As for the experimental part: Functional coupling between cells is confirmed by fluorescence recovery after photobleaching (FRAP) analysis. Briefly, cardiac clusters were loaded with the membrane-permeant fluorescent dye calcein AM (5 μmol/L; Invitrogen) in Ca^2+-free Tyrode solution for 20 min at 37° C. After washing away the excess extracellular fluorescent dye to prevent further loading, the cultures were bathed in Ca^2+-free Tyrode solution and placed on the stage of a Zeiss LSM 5 PASCAL laser-scanning confocal microscope. Using Zeiss software, a rectangular region encompassing 30-50% of a single cell within a cell cluster was selected and its fluorescence was bleached by a high-intensity laser pulse (488 nm, 3-5 s duration). This caused immediate loss of calcein fluorescence emission recorded through a 505 nm long-pass emission filter. Calcein redistribution from adjacent unbleached cells through connexin pores into the bleached region of interest (ROI) was recorded in subsequent confocal images acquired at 30 s intervals for up to 10 min using a low-intensity laser pulse. Fluorescence recovery within ROI was plotted as a function of time and fit to a single exponential function: IROI (t)=A [1−exp (−kt)], where IROI (t) is the ROI fluorescence intensity at time t, A is the amplitude of fluorescence recovery, and k is the rate of recovery. The latter is considered a measure of gap junction permeability. […]

A further test deals with human SSCs. In words: formation of ESC-like colonies in culture of human SSCs. The format is cell-based. The settings on record: BIO 1 μM; human cultures. As for the experimental part: To optimize the culture condition, DMEM/F12 (1:1; Invitrogen) was applied instead of DMEM as basic medium and several growth factors for long-term culture were added: GDNF (4-50 ng/ml), bFGF (1-10 ng/ml), LIF (10^3 Units/ml), BIO (Calbiochem) and 1×B27 (Invitrogen). Collagenase IV (1 mg/ml in PBS) was used instead of trypsin/EDTA for passaging the cells. […] Tightly packed ESC-like colonies derived from human SSCs after 7 passages (about 1 month; FIG. 3d, e) when cells are cultured in DMEM/F12 medium containing 15% FCS, 2 mM glutamine, 1×NEAA, 50 μM β-ME, 10 ng/ml GDNF, 2 ng/ml bFGF, 10^3 Units/ml LIF and 1×B27.

The next test deals with non-human primate SSCs. In words: formation of ESC-like colonies in culture of non-human primate SSCs. The settings on record: BIO 1 μM; non-human primate cultures. Format: cell-based.
In test [1] the test system is voltage-gated Na+ and L-type Ca2+ channels. In words: patch-clamp spontaneous action potentials, channel blockade. The format is cell-based, mouse. The settings on record: cadmium 0.5 mmol/L; maGSC-derived cardiomyocytes. How it is done:
To determine the functional expression of […] receptors in cardiomyocytes, the effects of β-adrenergic agonist isoproterenol (Iso; 1 μmol/L) on APs were studied. […] This is again in line with data from the ESC-derived cardiomyocytes. […] A further hint for the involvement of fast depolarising Na^+ channels are AP upstroke velocities in the magnitude of 30-50 Vs^−1 for ventricle-, purkinje and atrial-like APs (Table 3).
The membrane potential (Em) of cardiomyocytes was measured at room temperature with ruptured-patch whole cell current clamp (Maier, L. S., et al., Circ Res 2003, 92, 904-11). Fire-polished glass microelectrodes of >10 MΩ resistance when filled with pipette solution were used. Pipette solution contained (in mM) 120 potassium aspartate, 8 KCl, 7 NaCl, 1 MgCl2, 10 HEPES, 5 Mg-ATP, 0.3 Li-GTP (pH 7.2 with KOH). A normal Tyrode's solution with 2 mM CaCl2 served as bath solution. Access resistance was typically ˜20 MΩ after patch rupture. Liquid junction potentials were corrected before recording started. Spontaneous action potentials (APs) were recorded 1 min after patch rupture and followed for about 2 min. Signals were acquired at 1 kHz, filtered with 2.9 and 10 kHz Bessel filters, and recorded with an EPC10 amplifier (HEKA Elektronik, Lambrecht/Pfalz, Germany). […]

A further test concerns the target T1, L-type calcium channels (Mus musculus, UniProt Q01815).
T1 construct: functional L-type calcium channels exist in the maGSC-derived beating cardiomyocytes; endogenous in cells; host or cells: beating cardiac clusters (day 5+15) differentiated from mouse maGSCs
The test is described as follows: chronotropic effects of cardioactive drugs on beating cardiac clusters. The settings on record: beating cardiac clusters at day 5+15; for beating frequency / contraction: 10^−5 mol/L; for chronotropic effect on the beating frequency of maGSC-derived cardiomyocytes: dose dependence. The format is cell-based. The text has this:
In cardiac muscle, where Ca^2+ influx across the sarcolemma is essential for contraction, the dihydropyridine (DHP)-sensitive L-type calcium channel (DHP receptor) represents the major entry pathway of extracellular Ca^2+. […] The function of L-type calcium channels is examined in beating cardiac clusters at day 5+15 by evaluating chronotropic effects of cardioactive drugs.

T1 sequence (Q01815 whole entry): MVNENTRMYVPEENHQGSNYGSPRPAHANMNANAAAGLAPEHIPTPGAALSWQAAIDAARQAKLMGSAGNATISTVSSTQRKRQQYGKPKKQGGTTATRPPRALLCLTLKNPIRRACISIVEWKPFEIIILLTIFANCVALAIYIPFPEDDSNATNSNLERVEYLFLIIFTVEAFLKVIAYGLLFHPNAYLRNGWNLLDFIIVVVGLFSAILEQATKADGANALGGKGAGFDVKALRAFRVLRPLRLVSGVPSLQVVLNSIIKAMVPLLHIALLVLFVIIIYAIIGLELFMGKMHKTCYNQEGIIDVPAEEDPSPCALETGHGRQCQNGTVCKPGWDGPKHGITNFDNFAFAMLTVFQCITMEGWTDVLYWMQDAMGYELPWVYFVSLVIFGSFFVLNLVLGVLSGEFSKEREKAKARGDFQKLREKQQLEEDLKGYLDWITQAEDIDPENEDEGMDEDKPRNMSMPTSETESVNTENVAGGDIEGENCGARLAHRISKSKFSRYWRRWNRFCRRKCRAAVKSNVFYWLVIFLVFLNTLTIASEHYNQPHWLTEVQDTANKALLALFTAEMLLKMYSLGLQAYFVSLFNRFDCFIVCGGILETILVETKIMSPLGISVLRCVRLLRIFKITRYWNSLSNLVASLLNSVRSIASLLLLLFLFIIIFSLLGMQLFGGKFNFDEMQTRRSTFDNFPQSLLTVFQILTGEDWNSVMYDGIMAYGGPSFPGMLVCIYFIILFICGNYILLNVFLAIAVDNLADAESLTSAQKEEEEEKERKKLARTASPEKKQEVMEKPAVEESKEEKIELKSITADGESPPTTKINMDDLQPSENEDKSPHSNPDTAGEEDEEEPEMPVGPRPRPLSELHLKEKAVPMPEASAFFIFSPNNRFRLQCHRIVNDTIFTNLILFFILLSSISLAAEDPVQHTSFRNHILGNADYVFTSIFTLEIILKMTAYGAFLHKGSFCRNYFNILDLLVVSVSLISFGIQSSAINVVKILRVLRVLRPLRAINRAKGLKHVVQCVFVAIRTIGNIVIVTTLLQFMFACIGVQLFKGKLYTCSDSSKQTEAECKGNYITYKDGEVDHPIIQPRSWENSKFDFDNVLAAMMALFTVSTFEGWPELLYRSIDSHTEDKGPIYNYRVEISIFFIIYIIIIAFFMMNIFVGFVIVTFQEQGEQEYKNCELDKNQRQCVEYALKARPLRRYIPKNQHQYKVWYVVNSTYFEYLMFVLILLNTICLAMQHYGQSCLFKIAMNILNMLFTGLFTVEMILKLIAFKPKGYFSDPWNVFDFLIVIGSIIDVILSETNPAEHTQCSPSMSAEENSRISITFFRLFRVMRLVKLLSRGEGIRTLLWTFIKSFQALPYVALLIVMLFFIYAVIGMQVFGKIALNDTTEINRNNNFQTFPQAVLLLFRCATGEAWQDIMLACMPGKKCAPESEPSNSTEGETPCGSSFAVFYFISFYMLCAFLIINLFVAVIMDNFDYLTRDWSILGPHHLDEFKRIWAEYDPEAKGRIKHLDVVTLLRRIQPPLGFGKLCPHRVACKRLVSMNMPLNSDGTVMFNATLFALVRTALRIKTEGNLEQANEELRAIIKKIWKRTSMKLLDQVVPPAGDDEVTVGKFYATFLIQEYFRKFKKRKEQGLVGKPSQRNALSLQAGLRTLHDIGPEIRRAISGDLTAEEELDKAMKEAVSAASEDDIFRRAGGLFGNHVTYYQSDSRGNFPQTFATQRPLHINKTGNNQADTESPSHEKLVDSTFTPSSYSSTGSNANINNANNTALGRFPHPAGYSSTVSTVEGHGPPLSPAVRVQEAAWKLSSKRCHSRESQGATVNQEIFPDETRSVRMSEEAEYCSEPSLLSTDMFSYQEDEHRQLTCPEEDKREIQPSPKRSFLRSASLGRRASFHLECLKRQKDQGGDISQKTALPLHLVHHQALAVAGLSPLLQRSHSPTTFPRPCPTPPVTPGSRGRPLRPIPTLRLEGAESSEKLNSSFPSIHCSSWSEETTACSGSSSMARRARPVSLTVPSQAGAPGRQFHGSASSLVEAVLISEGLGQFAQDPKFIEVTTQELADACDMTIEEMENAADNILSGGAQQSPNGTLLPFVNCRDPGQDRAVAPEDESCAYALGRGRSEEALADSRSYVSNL
T1 sequence (Q8CC27 whole entry partner): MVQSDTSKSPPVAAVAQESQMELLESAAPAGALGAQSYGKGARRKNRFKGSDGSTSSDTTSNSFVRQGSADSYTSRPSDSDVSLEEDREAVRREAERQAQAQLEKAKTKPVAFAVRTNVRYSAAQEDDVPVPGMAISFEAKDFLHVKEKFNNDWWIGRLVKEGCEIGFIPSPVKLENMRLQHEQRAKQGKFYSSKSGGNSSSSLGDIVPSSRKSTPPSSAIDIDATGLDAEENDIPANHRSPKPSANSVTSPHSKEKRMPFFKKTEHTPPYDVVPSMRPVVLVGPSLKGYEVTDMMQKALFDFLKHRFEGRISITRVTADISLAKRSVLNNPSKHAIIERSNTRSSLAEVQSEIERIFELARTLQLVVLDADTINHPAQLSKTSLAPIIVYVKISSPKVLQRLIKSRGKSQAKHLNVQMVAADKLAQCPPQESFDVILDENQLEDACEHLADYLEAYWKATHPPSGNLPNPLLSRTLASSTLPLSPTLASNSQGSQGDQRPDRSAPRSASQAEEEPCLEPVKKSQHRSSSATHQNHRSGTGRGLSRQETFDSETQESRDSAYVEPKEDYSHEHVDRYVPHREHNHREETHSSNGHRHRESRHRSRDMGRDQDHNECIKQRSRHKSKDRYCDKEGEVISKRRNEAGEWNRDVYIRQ
T1 sequence (O08532 25-956 partner limits assumed): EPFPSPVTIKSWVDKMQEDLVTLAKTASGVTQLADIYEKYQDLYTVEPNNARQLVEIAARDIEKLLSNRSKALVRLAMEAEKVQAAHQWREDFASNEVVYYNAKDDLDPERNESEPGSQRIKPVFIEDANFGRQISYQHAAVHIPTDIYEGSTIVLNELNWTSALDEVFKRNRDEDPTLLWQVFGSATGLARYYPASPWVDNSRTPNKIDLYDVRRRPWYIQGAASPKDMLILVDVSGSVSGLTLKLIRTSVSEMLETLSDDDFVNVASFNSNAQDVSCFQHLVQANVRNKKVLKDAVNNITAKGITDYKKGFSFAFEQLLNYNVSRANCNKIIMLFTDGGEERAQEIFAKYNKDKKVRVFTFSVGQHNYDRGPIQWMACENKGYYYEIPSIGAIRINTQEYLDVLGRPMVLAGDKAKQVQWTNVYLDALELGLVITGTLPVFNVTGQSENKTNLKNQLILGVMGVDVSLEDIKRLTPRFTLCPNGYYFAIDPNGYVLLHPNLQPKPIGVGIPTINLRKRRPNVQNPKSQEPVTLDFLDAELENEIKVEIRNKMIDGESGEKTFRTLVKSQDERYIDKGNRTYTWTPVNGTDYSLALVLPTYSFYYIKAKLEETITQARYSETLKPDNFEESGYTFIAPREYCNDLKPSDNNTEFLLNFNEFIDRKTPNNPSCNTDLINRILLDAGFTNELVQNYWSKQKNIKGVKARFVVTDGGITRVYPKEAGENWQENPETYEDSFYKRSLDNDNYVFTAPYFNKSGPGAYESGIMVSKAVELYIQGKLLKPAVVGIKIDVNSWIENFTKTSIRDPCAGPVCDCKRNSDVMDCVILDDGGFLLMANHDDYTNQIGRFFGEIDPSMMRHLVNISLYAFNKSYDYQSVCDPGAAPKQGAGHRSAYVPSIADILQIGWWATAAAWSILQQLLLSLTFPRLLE
T1 sequence (O08532 957-1103 partner limits assumed): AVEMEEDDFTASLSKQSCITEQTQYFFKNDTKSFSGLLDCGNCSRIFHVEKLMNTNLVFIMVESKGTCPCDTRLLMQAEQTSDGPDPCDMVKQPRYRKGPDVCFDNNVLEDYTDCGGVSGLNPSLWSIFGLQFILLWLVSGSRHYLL

For `CC1(C)[C@@H](OC(=O)CCC(=O)O)CC[C@]2(C)[C@H]3C(=O)C=C4[C@@H]5C[C@@](C)(C(=O)O)CC[C@]5(C)CC[C@@]4(C)[C@]3(C)CC[C@@H]12` [carbenoxolone, 3β-hydroxy-11-oxoolean-12-en-30-oic acid 3-hemisuccinate], in the test with gap junctions, the “fluorescence recovery after photobleaching” value was “disrupted; also recorded: almost completely abolished”. With `O=C1Nc2cc(Br)ccc2/C1=C1/Nc2ccccc2/C1=N\O` [BIO, (2′Z, 3′E)-6-Bromoindirubin-3′-oxime], the “formation of ESC-like colonies” value in the test on human SSCs and in the test with non-human primate SSCs was “optimized the formation of ESC-like colonies” throughout. Turning to `[Cd]` [cadmium], in test [1], the “spontaneous APs” value is on record as “completely abolished”. For the molecule `COc1ccc([C@@H]2Sc3ccccc3N(CCN(C)C)C(=O)[C@@H]2OC(C)=O)cc1` [diltiazem], at L-type calcium channels, the “beating frequency / contraction” value is recorded as “almost completely blockes the contraction” and the “chronotropic effect on the beating frequency of maGSC-derived cardiomyocytes” value is given as “dose-dependent negative chronotropic effects”.

Turning to (S)-BayK 8644, at L-type calcium channels, the “beating frequency / contraction” value was “doubles the beating frequency” and the “chronotropic effect on the beating frequency of maGSC-derived cardiomyocytes” value was “dose-dependent positive chronotropic effects”.
